Read-outs that look alike come from different tables or passages of the source.

The values below come from patent US10894787B2, “Modulators of the GPR119 receptor and the treatment of disorders related thereto” (Arena Pharmaceuticals, Inc., priority 2010, dated 2021).

The conditions of data set [1]: human studies; infusion; over 24 hours; cited from earlier work.
For data set [2] the following is noted: combined administration with a DPP-IV inhibitor, cited from earlier work.
For the next data set, the target named is T1, GPR119 receptor (Homo sapiens, UniProt Q8TDV5).
T1 construct: expressed in transfected cells
T1 sequence (Q8TDV5 2-335 limits assumed): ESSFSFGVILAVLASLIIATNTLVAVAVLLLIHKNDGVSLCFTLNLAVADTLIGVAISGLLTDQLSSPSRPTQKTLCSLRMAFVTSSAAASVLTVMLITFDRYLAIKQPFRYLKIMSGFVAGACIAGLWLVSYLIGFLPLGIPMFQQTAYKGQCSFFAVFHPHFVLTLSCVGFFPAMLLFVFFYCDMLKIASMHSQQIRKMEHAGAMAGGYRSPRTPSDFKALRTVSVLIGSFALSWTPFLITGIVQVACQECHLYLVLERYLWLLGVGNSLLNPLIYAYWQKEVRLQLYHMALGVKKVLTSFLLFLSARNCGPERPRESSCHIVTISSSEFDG
As to the kind of experiment: HTRF assay for direct cAMP measurement in CHO-K1 cells stably expressing the GPR119 receptor. Format: cell-based. The following applies: for EC50: CHO-K1 cells stably expressing GPR119; for Pharmacological activity of metabolites (HTRF assay): metabolites of Compound 1. The procedure: The GPR119 agonist, Compound 1, was evaluated in an HTRF® cAMP detection assay according to the manufacturer's instructions (Cisbio, cAMP Dynamic 2 Assay Kit; #62AM4PEJ) using CHO-K1 cells stably expressing the GPR119 receptor. Briefly, CHO-K1 cells were transduced with a lentiviral vector encoding the nucleotide sequence of GPR119 (NCBI mRNA and protein reference sequences: NM_178471.2 & NP_848566, (GPR119 has also been referred to as Glucose-Dependent Insulinotropic Receptor (GDIR)). The N-terminus of the GPR119 nucleotide sequence was modified to replace the first, methionine-coding codon with a nucleotide sequence coding for a standard, nine amino acid, hemagglutinin tag. Following transduction, cells expressing the GPR119 receptor were isolated and a single clone was isolated following standard dilution-cloning procedures. On the day of the assay, cultured CHO-GPR119 cells were harvested, suspended in assay buffer and plated into 384-well assay plates (PerkinElmer Proxiplate #6008280) at a density of 2,000 cells per well. A cAMP standard curve was included on each plate. Test compounds were solubilized in DMSO, serially diluted in DMSO and then diluted in assay buffer before adding to the cells. Test compounds were evaluated in triplicate, using 10-point, 5-fold serial dilutions starting at 10 μM. The final DMSO concentration in the assay was 0.5%. Compounds and cells were incubated for 1 h at room temperature and then detection reagents were added to each well (cAMP-D2 in cell lysis buffer, followed by europium cryptate-labeled anti-cAMP antibody). Plates were then incubated at room temperature for 1 h prior to reading. Time-resolved fluorescence measurements were collected on PerkinElmer Envision™ or BMG Pherastar™ microplate readers. The compound N-(2-fluoro-4-(methylsulfonyl)phenyl)-6-(4-(3-isopropyl-1,2,4-oxadiazol-5-yl)piperidin-1-yl)-5-nitropyrimidin-4-amine was used as a positive control in each runset while assay buffer containing 0.5% DMSO was used as the negative control.
Background: Time-resolved FRET reads energy transfer from a long-lived donor to a nearby acceptor.

The nature of data set [3]: In vivo metabolism of Compound 1: metabolites in dog plasma samples (LC/MS/MS). The following applies: dog plasma after dosing Compound 1; under the analytical conditions used. The procedure: (§1) Metabolites of Compound 1 were identified in plasma samples collected from different pharmacokinetic studies in various species.
(§2) Four species, mouse, rat, dog and monkey were dosed with Compound 1, and plasma samples were collected at predetermined time points from each of the species according to specific study protocols. The samples were then processed and subjected to the LC/MS/MS analysis for the identification and quantification of the metabolites. Three metabolites, designated M1 (Compound 2), M2 (Compound 3), and M3 were identified in plasma samples from various species. The M1 metabolite was identified as a mono-N-demethylation of Compound 1, and the M2 metabolite was a di-N-demethylation product of Compound 1. The third metabolite M3 (i.e., 3-fluoro-4-(5-fluoro-6-(4-(3-(2-fluoropropan-2-yl)-1,2,4-oxadiazol-5-yl)piperidin-1-yl)pyrimidin-4-ylamino)benzoic acid, see below) was determined as a carboxylic acid of Compound 1.

Another data set has as its system dog liver microsomes. In words: In vitro metabolism of Compound 1 in dog liver microsomes. Format: in vitro ADME. The following applies: Compound 1 incubated with 0.25 mg/mL microsomal protein, pH 7.4. As for the experimental part:
(§3) Compound 1 was incubated with mouse, rat, dog, monkey and human liver microsomal protein (0.25 mg/mL final concentration) in 100 mM potassium phosphate buffer containing 3 mM MgCl2 and 1 mM EDTA (pH 7.4) for over a period of time in the presence or absence of (3-NADPH. The samples were then processed and the supernatant was analyzed by LC-MS/MS for the identification and quantification of the metabolites.

Another data set relates to liver microsomes. As to the kind of experiment: In vitro metabolism of Compound 1 in liver microsomes from various species. It counts as in vitro ADME, mouse, rat, dog, monkey and human. The conditions noted are these: Compound 1 incubated with 0.25 mg/mL microsomal protein, pH 7.4; relative to M2 and M3. As for the experimental part:
as §3
A general note: Liver microsomes are a subcellular fraction often used to study metabolism.

The nature of data set [4]: In vivo metabolism of Compound 1: metabolites in plasma samples from various species (LC/MS/MS). On the set-up: species or system mouse, rat, dog and monkey. The following applies: all species, after dosing Compound 1. The procedure: as §1, §2
The mark [5] stands for this setting: 1 h incubation at room temperature, read-out: EC50, HTRF cAMP assay.

“PYY3-36: generated from PYY1-36 by cleavage of the N-terminal Tyr and Pro residues by DPP-IV; Y2R agonist”: the “Reduction of food intake” value in data set [1] is on record as 33%.

With `CC(C)c1noc(C2CCN(c3ncnc(Nc4ccc(S(C)(=O)=O)cc4F)c3[N+](=O)[O-])CC2)n1` [Compound B111, (2-Fluoro-4-methanesulfonyl-phenyl)-{6-[4-(3-isopropyl-[1,2,4]oxadiazol-5-yl)-piperidin-1-yl]-5-nitro-pyrimidin-4-yl}-amine], the “Plasma GLP-1 levels” value in data set [2] (greater than either agent alone) was “acutely increased plasma GLP-1 levels”. In data set [2] (significantly greater degree than either agent alone), the Glucose tolerance result is on record as “improved glucose tolerance”.

On to `CC(C)(F)c1noc(C2CCN(c3ncnc(Nc4ccc(C(N)=O)cc4F)c3F)CC2)n1` [Compound 3, 3-fluoro-4-(5-fluoro-6-(4-(3-(2-fluoropropan-2-yl)-1,2,4-oxadiazol-5-yl)piperidin-1-yl)pyrimidin-4-ylamino)benzamide], for which the EC50 (as a rule, the concentration needed to bring the measured effect to its halfway point) on GPR119 receptor (setting [5]) worked out at 0.0282 µM. The “Pharmacological activity of metabolites (HTRF assay)” value (shortened to “Pharmacological activity”) on GPR119 receptor is “pharmacologically active”. Also, the “Metabolite observed in dog plasma samples” value in data set [3] is “not observed”. The “Formation of metabolite in dog liver microsomes” value in the data set with dog liver microsomes is recorded as “negligible”.

In the case of `CNC(=O)c1ccc(Nc2ncnc(N3CCC(c4nc(C(C)(C)F)no4)CC3)c2F)c(F)c1` [Compound 2, 3-fluoro-4-(5-fluoro-6-(4-(3-(2-fluoropropan-2-yl)-1,2,4-oxadiazol-5-yl)piperidin-1-yl)pyrimidin-4-ylamino)-N-methylbenzamide], the EC50 at GPR119 receptor (setting [5]) was 0.027 µM. Moreover, on GPR119 receptor, the “Pharmacological activity” value is reported as “pharmacologically active”. In the data set with liver microsomes, the “Rate of formation of metabolite in liver microsomal incubation” value is “highest”.

For `CC(C)(F)c1noc(C2CCN(c3ncnc(Nc4ccc(C(=O)O)cc4F)c3F)CC2)n1` [Compound M3, 3-fluoro-4-(5-fluoro-6-(4-(3-(2-fluoropropan-2-yl)-1,2,4-oxadiazol-5-yl)piperidin-1-yl)pyrimidin-4-ylamino)benzoic acid], on GPR119 receptor (read-out: EC50, HTRF assay), the EC50 is 100 µM. In addition, at GPR119 receptor, the “Pharmacological activity” value is “substantially little activity”. Further, the Circulating metabolite status result in data set [4] is reported as “major circulating metabolite”.
